The data set can be described thus: pKa of amino group of the heterocyclic ring. The conditions noted are these: amino group in heterocyclic ring. Type of data set: physicochemical.

By pKa is commonly meant the negative logarithm of the acid dissociation constant. A lower pKa goes with a stronger acid or weaker base.

With `CC(=O)CN1CCNCC1` [1-(1-piperazinyl)-2-propanone], the pKa turned out to be 9.1.
`O=C1CNCC(=O)N1` [2,6-piperazinedione] showed a pKa of 4.3.
As to `CN1CC(CO)NCC1=O` (stereo not drawn) [5-hydroxymethyl-1-methyl-2-piperazinone], the pKa was found to be 6.6.

The values above are taken from patent US11123683B2, “Carbon dioxide absorbent and apparatus of separating and recovering carbon dioxide” (Kabushiki Kaisha Toshiba, priority 2017, dated 2021).
